Assay results taken from patent EP0531958A1, “6-Aminoquinolones, their synthesis and their use as antibacterial agents” (MEDIOLANUM FARMACEUTICI S.P.A., priority 1991, dated 1993).
In brackets after ≈: the same amount, converted by molar mass. Read-outs that look alike come from different tables or passages of the source.

Tests used:
Assay type in all cases: cell-based
[1] = system: Gram +; experiment: MIC test, average over the 5 gram-positive test germs; conditions: 24 h
Procedure: (§1) As to the antibacterial activity, there was determined the Least (Minimum) Inhibiting Concentration (MIC), by working according to the following operative conditions.
(§2) There were used suspensions of test germs (5 gram-positive and 15 gram-negative) having a known titre, kept freezed at -80°C and diluted, at the time of use, in peptonized water up to a concentration of 1-2.10⁷ cfu/ml.
(§3) A few mg of the products, according to the invention were weighed sufficient for preparing parent solutions in DMSO + NaOH (1N) containing 2560 µg/ml (64µg/ml/dish). From the thus prepared parent solutions there were prepared 12 serial dilutions (1:2) down to the concentration of 1.25 µg/ml.
(§4) 0.5 ml of the different dilutions of each product were distributed on dishes containing 19.5 ml of agarized medium (TSA), maintained in a fluid state at the temperature of 50°C. After slight stirring, the dishes were made to solidify and dry under hood (laminar flow).
(§5) The MIC tests (Least or "Minimum" Inhibiting Concentration) were performed by using a Steers multiwell inoculator having 36 wells, each containing 200 µl of bacterial suspension.
(§6) After inoculation, the dishes were placed into a thermostat and checked after 24 h of incubation at 35°C.
(§7) The MIC is defined as the lowermost product concentration (µg/ml) inhibiting the visible growth of the microorganisms.

[2] = system: Gram -; experiment: MIC test, average over the 15 gram-negative test germs; conditions: 24 h
Procedure: as §1, §2, §3, §4, §5, §6, §7

[3] = system: Staphylococcus aureus MPR 5; experiment: MIC test, agar dilution with Steers multiwell inoculator; conditions: MPR5, TSA dishes, 24 h at 35°C, read-out: Minimum Inhibiting Concentration
Procedure: as §1, §2, §3, §4, §5, §6, §7

[4] = system: Staphylococcus epidermidis HCF Berset C.; experiment: as above; conditions: TSA dishes, 24 h at 35°C, read-out: Minimum Inhibiting Concentration
Procedure: as §1, §2, §3, §4, §5, §6, §7

[5] = system: Providencia stuardii CNUR 5; experiment: as above; conditions: CNUR5, TSA dishes, 24 h at 35°C, read-out: Minimum Inhibiting Concentration
Procedure: as §1, §2, §3, §4, §5, §6, §7

[6] = system: Pseudomonas aeruginosa CNUR 4; experiment: as above; conditions: CNUR4, TSA dishes, 24 h at 35°C, read-out: Minimum Inhibiting Concentration
Procedure: as §1, §2, §3, §4, §5, §6, §7

[7] = system: Enterobacter cloacae OMNF 1153; experiment: as above; conditions: OMNF1153, TSA dishes, 24 h at 35°C, read-out: Minimum Inhibiting Concentration
Procedure: as §1, §2, §3, §4, §5, §6, §7

[8] = system: Escherichia coli ATCC 8739; experiment: as above; conditions: ATCC8739, TSA dishes, 24 h at 35°C, read-out: Minimum Inhibiting Concentration
Procedure: as §1, §2, §3, §4, §5, §6, §7

[9] = system: Staphylococcus epidermidis CPHL A2; experiment: as above; conditions: CPHLA2, TSA dishes, 24 h at 35°C, read-out: Minimum Inhibiting Concentration
Procedure: as §1, §2, §3, §4, §5, §6, §7

[10] = system: Escherichia coli ISF 432; experiment: as above; conditions: ISF432, TSA dishes, 24 h at 35°C, read-out: Minimum Inhibiting Concentration
Procedure: as §1, §2, §3, §4, §5, §6, §7

[11] = system: Shighella enteritidis; experiment: as above; conditions: TSA dishes, 24 h at 35°C, read-out: Minimum Inhibiting Concentration
Procedure: as §1, §2, §3, §4, §5, §6, §7

[12] = system: Klebsiella pneumoniae ATCC 10031; experiment: as above; conditions: ATCC10031, TSA dishes, 24 h at 35°C, read-out: Minimum Inhibiting Concentration
Procedure: as §1, §2, §3, §4, §5, §6, §7

[13] = system: Streptococcus facealis LEP Br.; experiment: as above; conditions: TSA dishes, 24 h at 35°C, read-out: Minimum Inhibiting Concentration
Procedure: as §1, §2, §3, §4, §5, §6, §7

[14] = system: Pseudomonas aeruginosa ATCC 9027; experiment: as above; conditions: ATCC9027, TSA dishes, 24 h at 35°C, read-out: Minimum Inhibiting Concentration
Procedure: as §1, §2, §3, §4, §5, §6, §7

[15] = system: Proteus vulgaris CNUR 6; experiment: as above; conditions: CNUR6, TSA dishes, 24 h at 35°C, read-out: Minimum Inhibiting Concentration
Procedure: as §1, §2, §3, §4, §5, §6, §7

[16] = system: Escherichia coli 120; experiment: as above; conditions: TSA dishes, 24 h at 35°C, read-out: Minimum Inhibiting Concentration
Procedure: as §1, §2, §3, §4, §5, §6, §7

[17] = system: Staphylococcus aureus ATCC 6538; experiment: as above; conditions: ATCC6538, TSA dishes, 24 h at 35°C, read-out: Minimum Inhibiting Concentration
Procedure: as §1, §2, §3, §4, §5, §6, §7

[18] = system: Acinebacter calcoloaceticus OSMPV 1130; experiment: as above; conditions: TSA dishes, 24 h at 35°C, read-out: Minimum Inhibiting Concentration
Procedure: as §1, §2, §3, §4, §5, §6, §7

[19] = system: Escherichia coli CNUR 1; experiment: as above; conditions: CNUR1, TSA dishes, 24 h at 35°C, read-out: Minimum Inhibiting Concentration
Procedure: as §1, §2, §3, §4, §5, §6, §7

[20] = system: Pseudomonas aeruginosa CNUR 2; experiment: as above; conditions: CNUR2, TSA dishes, 24 h at 35°C, read-out: Minimum Inhibiting Concentration
Procedure: as §1, §2, §3, §4, §5, §6, §7

[21] = system: Escherichia coli CNUR 8; experiment: as above; conditions: CNUR8, TSA dishes, 24 h at 35°C, read-out: Minimum Inhibiting Concentration
Procedure: as §1, §2, §3, §4, §5, §6, §7

[22] = system: Enterobacter cloacae OMNF 1174; experiment: as above; conditions: OMNF1174, TSA dishes, 24 h at 35°C, read-out: Minimum Inhibiting Concentration
Procedure: as §1, §2, §3, §4, §5, §6, §7

[23] = geometrical average of the MIC over the 15 Gram - strains, read-out: Geometrical Average
[24] = mean log of the MIC over the 15 Gram - strains, read-out: Log (converted)

| SMILES | MIC ([1]; read-out: Log (converted)) [µg/mL] | MIC [2, 23] [µg/mL] | MIC [2, 24] [µg/mL] | MIC [3] [µg/mL] | MIC [4] [µg/mL] | MIC [5] [µg/mL] | MIC [6] [µg/mL] | MIC [7] [µg/mL] | MIC [8] [µg/mL] | MIC [9] [µg/mL] | MIC [10] [µg/mL] | MIC [11] [µg/mL] | MIC [12] [µg/mL] | MIC [13] [µg/mL] | MIC [14] [µg/mL] | MIC [15] [µg/mL] | MIC [16] [µg/mL] | MIC [17] [µg/mL] | MIC [18] [µg/mL] | MIC [19] [µg/mL] | further results |
| --- | --- | --- | --- | --- | --- | --- | --- | --- | --- | --- | --- | --- | --- | --- | --- | --- | --- | --- | --- | --- | --- |
| CN1CCN(c2c(N)cc3c(=O)c(C(=O)O)cn(C4CC4)c3c2F)CC1 [Compound 22] | 8 (≈ 22.2 µM) | 0.783 (≈ 2.17 µM) | 0.783 (≈ 2.17 µM) | 4 (≈ 11.1 µM) | 8 (≈ 22.2 µM) | 4 (≈ 11.1 µM) | 32 (≈ 88.8 µM) | 0.25 (≈ 0.694 µM) | 1 (≈ 2.77 µM) | 4 (≈ 11.1 µM) | 0.06 (≈ 0.166 µM) | 0.25 (≈ 0.694 µM) | 0.06 (≈ 0.166 µM) | 64 (≈ 178 µM) | 2 (≈ 5.55 µM) | 32 (≈ 88.8 µM) | 0.06 (≈ 0.166 µM) | 4 (≈ 11.1 µM) | 8 (≈ 22.2 µM) | 0.12 (≈ 0.333 µM) | MIC [20]: 8 µg/mL (≈ 22.2 µM); MIC [21]: 0.12 µg/mL (≈ 0.333 µM); MIC [22]: 0.25 µg/mL (≈ 0.694 µM) |
| CC1CN(c2cc3c(cc2N)c(=O)c(C(=O)O)cn3C2CC2)CC(C)N1 (stereo not drawn) [Compound 11] | 6.97 (≈ 19.5 µM) | 0.75 (≈ 2.1 µM) | 0.75 (≈ 2.1 µM) | 8 (≈ 22.4 µM) | 4 (≈ 11.2 µM) | 2 (≈ 5.61 µM) | 64 (≈ 180 µM) | 0.5 (≈ 1.4 µM) | 0.03 (≈ 0.0842 µM) | 2 (≈ 5.61 µM) | 0.03 (≈ 0.0842 µM) | 0.25 (≈ 0.701 µM) | 0.03 (≈ 0.0842 µM) | 32 (≈ 89.8 µM) | 2 (≈ 5.61 µM) | 64 (≈ 180 µM) | 0.12 (≈ 0.337 µM) | 8 (≈ 22.4 µM) | 8 (≈ 22.4 µM) | 0.25 (≈ 0.701 µM) | MIC ([1]; geometrical average of the MIC over the 5 Gram + strains, read-out: Geometrical Average): 6.96 µg/mL; MIC [20]: 8 µg/mL (≈ 22.4 µM); MIC [21]: 0.25 µg/mL (≈ 0.701 µM); MIC [22]: 0.5 µg/mL (≈ 1.4 µM) |
| CN1CCN(c2cc3c(cc2N)c(=O)c(C(=O)O)cn3C(C)(C)C)CC1 [Compound 44, 6-amino-1-terbutyl-7-(4-methyl-1-piperazinyl)-1,4-dihidro-4-oxo-quinoline carboxylic acid] | 4 (≈ 11.2 µM) | 1.73 (≈ 4.82 µM) | 1.73 (≈ 4.81 µM) | 2 (≈ 5.58 µM) | 4 (≈ 11.2 µM) | 4 (≈ 11.2 µM) | 128 (≈ 357 µM) | 2 (≈ 5.58 µM) | 0.06 (≈ 0.167 µM) | 2 (≈ 5.58 µM) | 0.06 (≈ 0.167 µM) | 1 (≈ 2.79 µM) | 0.06 (≈ 0.167 µM) | 32 (≈ 89.3 µM) | 4 (≈ 11.2 µM) | 128 (≈ 357 µM) | 0.5 (≈ 1.39 µM) | 2 (≈ 5.58 µM) | 4 (≈ 11.2 µM) | 1 (≈ 2.79 µM) | MIC [20]: 32 µg/mL (≈ 89.3 µM); MIC [21]: 0.5 µg/mL (≈ 1.39 µM); MIC [22]: 1 µg/mL (≈ 2.79 µM) |
| CN1CCN(c2cc3c(cc2N)c(=O)c(C(=O)O)cn3C2CC2)CC1 [Compound 8] | 4 (≈ 11.7 µM) | 0.861 (≈ 2.51 µM) | 0.861 (≈ 2.51 µM) | 2 (≈ 5.84 µM) | 4 (≈ 11.7 µM) | 8 (≈ 23.4 µM) | 64 (≈ 187 µM) | 0.25 (≈ 0.73 µM) | 0.25 (≈ 0.73 µM) | 2 (≈ 5.84 µM) | 0.03 (≈ 0.0876 µM) | 0.25 (≈ 0.73 µM) | 0.03 (≈ 0.0876 µM) | 32 (≈ 93.5 µM) | 4 (≈ 11.7 µM) | 64 (≈ 187 µM) | 0.12 (≈ 0.35 µM) | 2 (≈ 5.84 µM) | 4 (≈ 11.7 µM) | 0.25 (≈ 0.73 µM) | MIC [20]: 16 µg/mL (≈ 46.7 µM); MIC [21]: 0.12 µg/mL (≈ 0.35 µM); MIC [22]: 0.25 µg/mL (≈ 0.73 µM) |
